Experiments:
[1] = test system: TNFα; experiment: DSS induced colitis in mice, colon TNFα levels by ELISA; format: in vivo, C57BL/6 mice; details: for average colon TNFα level: CBD 50 mg/kg, Spilanthol 10 mg/kg, gavage daily 8 days, day 9, healthy 486, vehicle 1,116 pg/ml; for reduction in the TNFα increase effect / reduction of colon TNFα level comparing to vehicle / increase of colon TNFα level from baseline (healthy mice): same doses; for reduction in the TNFα increase effect / reduction of colon TNFα level comparing to vehicle: day 9; for increase of colon TNFα level from baseline (healthy mice): vehicle 130% increase
Experimental: (§1) Colitis was induced in 10 weeks old female C57BL/6 mice (Harlan laboratories, Israel) by feeding them for 8 days with 1.5% (w/vol) DSS in the drinking water (Peer et al. Science, 319: 627-630, 2008; Dearling et al. IBD 2010; Dearling et al. IBD 2016), Kedmi et al. Nature Nanotechnology, 2018.
(§2) Mice were divided into 4 study groups (10 mice in each group): 1. Vehicle treatment group; 2. CBD 50 mg/kg treatment group; 3. Spilanthol 10 mg/kg treatment group; and 4. CBD 50 mg/kg+Spilanthol 10 mg/kg combination treatment group (herein “test combination group”). Treatment was given via gavage daily for 8 days. An additional group of 10 healthy mice served as a […] control arm. Body weight was monitored every other day. At the end of day 9 the animals were sacrificed and colon TNFα levels as well as the total length of the length of colon from the cecum to anus were assayed.
(§3) The following readouts were measured in the study as indicators for assessing the amelioration and the therapeutic efficacy of the different treatments: 1. Changes in body weight, 2. Colon's TNFα levels as measured by ELISA kits (R&D Systems, USA), 3. Total length of colon from cecum to anus, as measured by a blinded veterinary doctor.

[2] = test system: Dextran Sodium Sulphate (DSS) induced colitis; experiment: DSS induced colitis in mice, changes in body weight; format: in vivo, C57BL/6 mice; details: CBD 50 mg/kg, Spilanthol 10 mg/kg, gavage daily for 8 days; for prevention of the weight loss effect (improvement in outcome vs vehicle): day 9; for average loss of baseline body weight: measured on day 9, vehicle 14.6%
Experimental: as §1, §2, §3

[3] = test system: alanine aminotransferase (ALT); experiment: MCD diet induced NASH in mice, ALT activity in serum; format: in vivo, FVB/NJ mice; details: CBD 50 mg/kg, Spilanthol 10 mg/kg, gavage daily for 21 days, MCD elevation 515 SFU/ml
Source text: (§4) MCD diet in mice is considered a common gold standard model for the development of NASH. In this model, the absence of methionine leads to hepatic injury, inflammation, and fibrosis, and the deficiency of choline leads to macrovesicular steatosis. The MCD diet mouse model has been used in several studies to induce NASH with or without fibrosis.
NASH was induced in 12 weeks old Male FVB/NJ mice fed with the MCD diet for 21 days. Mice were divided into 5 study groups (12 mice in each group): • 1. Healthy animal group—No induction of NASH by MCD diet. • 2. MCD diet group—with no treatment by either CBD or Spilanthol. • 3. CBD alone group—MCD diet+daily CBD 50 mg/kg treatment. • 4. Spilanthol alone group—MCD diet+daily Spilanthol 10 mg/kg treatment. • 5. […]
(§5) Treatment was given via gavage daily for 21 days. […] Body weight was monitored every other day. At the end of day 21 the animals were sacrificed, and study readouts as described below were measured.
(§6) The following readouts were measured in the study as indicators for the therapeutic efficacy of the different treatments: • 1. […] Study Readouts
1. Liver enzyme activity levels in serum: The average level of alanine aminotransferase (ALT) activity in the serum of the mice in the different treatment groups was measured using a biochemical autoanalyzer following 21 days of the. […]

[4] = test system: NASH induced by a methionine and choline deficient (MCD) diet; experiment: MCD diet induced NASH in mice, liver weight; format: in vivo, FVB/NJ mice; details: same doses, 21 days
Source text: as §4
(§7) NASH was induced in 12 weeks old Male FVB/NJ mice fed with the MCD diet for 21 days. Mice were divided into 5 study groups (12 mice in each group): • 1. Healthy animal group—No induction of NASH by MCD diet. • 2. MCD diet group—with no treatment by either CBD or Spilanthol. • 3. CBD alone group—MCD diet+daily CBD 50 mg/kg treatment. • 4. Spilanthol alone group—MCD diet+daily Spilanthol 10 mg/kg treatment. • 5. Combination treatment group—MCD diet+daily CBD 50 mg/kg and Spilanthol 10 mg/kg treatment.
as §5, §6
3. […] The total liver weight was also measured for all mice following the 21 days of the study. […] The average liver weight as measured in the not dieted mice group (healthy) was 1.22 grams. […]

[5] = test system: aspartate aminotransferase (AST); experiment: MCD diet induced NASH in mice, AST activity in serum; format: in vivo, FVB/NJ mice; details: CBD 50 mg/kg, Spilanthol 10 mg/kg, gavage daily for 21 days
Source text: as §4, §7
Treatment was given via gavage daily for 21 days. That is, the MCD diet and treatment were initiated simultaneously, so as to examine the treatments' ability both to prevent and treat NASH. Body weight was monitored every other day. At the end of day 21 the animals were sacrificed, and study readouts as described below were measured.
The following readouts were measured in the study as indicators for the therapeutic efficacy of the different treatments: • 1. 1. Liver enzymes activity levels in the serum (ALT and AST). • 2. 2. […] Study Readouts […]

[6] = test system: Dextran Sodium Sulphate (DSS) induced colitis; experiment: DSS induced colitis in mice, total length of colon from cecum to anus; format: in vivo, C57BL/6 mice; details: for average colon length: CBD 50 mg/kg, Spilanthol 10 mg/kg, gavage daily 8 days, day 9, healthy 7.66, vehicle 4.9 cm; for decrease of colon length from baseline (healthy mice): vehicle 36% decrease
Experimental: as §1, §2, §3

[7] = test system: IL-6; experiment: MCD diet induced NASH in mice, IL-6 serum levels by ELISA; format: in vivo, FVB/NJ mice; details: same doses, 21 days, healthy 88, untreated dieted 2,912 pg/ml
Source text: as §4, §7, §5, §6
2. […] Pro-inflammatory cytokine IL-6 levels were also measured in the serum of the mice at the end of the 21 days of the study using a commercial ELISA kit (R&D systems, USA). […]

[8] = test system: nitric oxide (NO) production; details: RAW 264.7 murine macrophages; cited from earlier work
[9] = test system: ICR mice; details: acute toxicity; cited from earlier work
[10] = test system: human HEK293 kidney cells; details: cited from earlier work
[11] = test system: Ames test; details: cited from earlier work
[12] = test system: RAW 264.7 murine macrophages; details: concentrations up to 40 μg/ml; cited from earlier work

SMILES | average colon TNFα level [1] | reduction in the TNFα increase effect [1] | reduction of colon TNFα level comparing to vehicle [1] | increase of colon TNFα level from baseline (healthy mice) [1] | prevention of the weight loss effect (improvement in outcome vs vehicle) [2] | average loss of baseline body weight [2] | reduction of the elevated ALT serum activity levels [3] | reduction in liver weight loss [4] | reduction in AST enzyme activity levels in serum [5] | average colon length [6] | decrease of colon length from baseline (healthy mice) ([6]; same doses) | improvement in outcome (colon shortening effect) ([6]; same doses, vs vehicle) | reduction of the colon shortening effect ([6]; same doses, vs vehicle) | reduction of the elevated IL-6 serum levels [7] | effect on nitric oxide (NO) production [8] | median lethal dose (LD50) [9] | cytotoxic effect, mean inhibitory concentration (IC50) [10] | mutagenic effects ([11]; Ames test) | antimutagenic effects ([11]; at 25 and 50 μg/ml) | cytotoxic effects [12]
C=C(C)C1CCC(C)=CC1c1c(O)cc(CCCCC)cc1O (stereo not drawn) [CBD, 2-[3-methyl-6-(1-methylethenyl)-2-cyclohexen-1-yl]-5-pentyl-1,3-benzenediol] | 928 pg/mL | 30% | 188 pg/mL | 91% | 44% | 8.2% | 16.5% | 38.3% | neither CBD alone, nor Spilanthol alone has any significant effect | 5.31 cm | 30.7% | 14.9% | 0.41 cm | 13.5% |  |  |  |  |  | 
C/C=C/C=C\CC/C=C/C(=O)NCC(C)C [Spilanthol, (2E,6Z,8E)-N-isobutyl-2,6,8-decatrienamide] | 980 pg/mL | 21.5% | 136 pg/mL | 101% | 0% | 14.6% | no effect | no effect | neither CBD alone, nor Spilanthol alone has any significant effect | 4.9 cm | 36% | 0% |  | ineffective | stimulatory effect | 113 mg/kg | 260 µg/mL | No mutagenic effects | antimutagenic effects of affinin were observed | No cytotoxic effects

— patent publication US12023306B2, “Compositions comprising a cannabinoid and spilanthol” (priority 2019, dated 2024)
